Assay results published in US11078194B2, “Salt form and crystal form serving as FGFR and VEGFR inhibitor compounds, and preparation method therefor” (HARBIN ZHENBAO PHARMACEUTICAL CO., LTD., priority 2017, dated 2021).

Columns and labels:
[1] = Solid stability test of crystal form G, crystal form I and crystal form J (HPLC content, total impurities, XRPD, appearance); assay type: physicochemical; conditions: for thermal stability and stability under accelerated conditions: conclusion of influencing factors and accelerated tests
Experimental: About 10 mg of crystal form G, crystal form I, or crystal form J were weighed accurately, and placed on the bottom of a 40 mL glass sample bottle and spread into a thin layer. For an open sample, the bottle mouth thereof was sealed with aluminum foil poked with pinholes to ensure that the sample can fully contact with the ambient air. For a sealed sample, the bottle mouth thereof was sealed with a bottle cap, and wrapped with a sealing film. Two duplicate samples were weighed at each time point of each condition in parallel, and an appropriate amount of sample (not weighed) was taken additionally for XRPD detection. The prepared samples were placed under each condition and were sampled and analyzed when the time point was arrived. On 0th day, 5 control samples were weighed in parallel and stored in a refrigerator at −20° C. until analysis. The samples subjected to light irradiation were prepared by the same method, and placed on the bottom of a 40 mL glass sample bottle. The glass bottle was left open and placed in the upright position in a light irradiation box. In addition, two samples in an appropriate amount were taken as samples in dark, and the glass bottles containing the same were left open, put in the upright position, and wrapped with tin foil, and irradiated with a total luminance of 1.2×10^6Lux.hr and a near ultraviolet power of 200 w.hr/m^2. After irradiation, the samples was stored in the refrigerator at −20° C. for analysis.
The compounds were placed under the following conditions and sampled at different time points to detect the physical properties, and the content and total impurities were analyzed by HPLC.

[2] = Hygroscopicity test by dynamic vapor sorption (DVS); assay type: physicochemical; conditions: 25±1° C. and 80±2% RH; for hygroscopicity evaluation: scales in the 11th table
Experimental: Instrument model: SMS DVS Advantage dynamic vapor sorption analyzer Detection conditions: samples (10 mg to 15 mg) were placed in a DVS sample tray for detection. The detailed DVS parameters are as follows: Temperature: 25° C. Balance: dm/dt=0.01%/min (shortest: 10 min, longest: 180 min) Drying: 120 minutes at 0% RH RH (%) gradient for testing: 10% RH (%) range for gradient testing: 0%-90%-0% The hygroscopicity was evaluated using the following scales: [table] 10 to 15 mg of the crystal form I of the compound of formula (III) was taken and placed in a DVS sample tray for testing. 10 to 15 mg of the crystal form J of the compound of formula (IV) was taken and placed in a DVS sample tray for testing.

FGFR1 = target: T1, FGFR1 (Homo sapiens, UniProt P11362); experiment: Z'-LYTE Detection Kinase Assay, in vitro enzyme activity test; assay type: biochemical; conditions: 0.6 nM FGFR1, 10 μm ATP, 23° C., 60 minutes
T1 construct: purchased Invitrogen PV4105
Experimental: The enzyme activity was detected by Z′-LYTE™ Detection Kinase Assay, and the IC50 value of the compound was used as an indicator to evaluate the inhibitory effect of the compound against FGFR1.
FGFR1 (Invitrogen #PV4105)
Reaction buffer solution: 50 mM Hepes (pH 7.5), 10 mM MgCl2, 1 mM EGTA, 0.01% Brij-35, 1 mM DTT, 2 mM MnCl2;
0.6 nM FGFR1, 2 μm Tyr^4 peptide and 10 μm ATP in reaction buffer solution (50 mM Hepes, pH 7.5, 10 mM MgCl2, 0.01% BRU-35, 1 mM EGTA, 4 mM MnCl2, 2 mM DTT).
a. Diluting the compound with DMSO to 10 mM, 3-fold dilution, 11 gradients, two duplicate wells;
b. Transferring compound diluted with a ratio of 1:25 to the middle plate at Bravo Automatic Liquid Station. Then transferring 2.5 uL to the reaction plate to ensure the final DMSO concentration to be 1%;
c. Transferring 5 μL enzyme/substrate buffer to each well;
d. Adding ATP solution to each well sequentially with Multidrop liquid workstation;
e. Centrifuging at 1000 rpm for 1 minute;
f. Placing the reaction plate in a 23° C. incubator, and allowing to react for 60 minutes.
a. Preparing a mixture of Development regent B and Development Buffer with a ratio of 1:128;
b. Adding 5 uL to each well and centrifuging at 1000 rpm for 1 minute;
c. Placing the reaction plate into an incubator (23° C.) for 90 minutes after centrifugation, taking it out, and reading it in the Envision (Perkin Elmer) plate reader […]

[3] = system: FGFR1/2 Highly Expressed Patient-derived Liver Tumor Transplantation Model; experiment: Tumor growth inhibition (TGI) analysis; assay type: in vivo, mice; conditions: 5 mg/kg, BID
Experimental: The evolutionary growth potential of tumors was evaluated by the relationship between tumor volume and time. The long axis (L) and short axis (W) of the subcutaneous tumor were measured twice a week by the caliper and the tumor volume (TV) was calculated by the formula ((L×W^2)/2). TGI was calculated from the difference between the median tumor volume in the solvent group mice and the median tumor volume in the drug group mice, expressed as a percentage counting for the median tumor volume in the solvent control group, calculated by the following formula: % TGI=((median tumor volume (control)−median tumor volume (dosing group))/median tumor volume (control group))×100
The original statistical analysis was done by repeating the analysis of variance, followed by post-hoc Scheffe's test method for multiple comparisons, with solvent alone (0.5% methylcellulose+0.2% Tween in water) as negative control.

[4] = Accelerated test (40 C./relative humidity 75%, open), 1st month
[5] = Accelerated test (40 C./relative humidity 75%, open), 2nd month
[6] = Accelerated test (40 C./relative humidity 75%, open), 3rd month
[7] = Accelerated test (40 C./relative humidity 75%, open), 10th day
[8] = Accelerated test (60 C./relative humidity 75%, open), 1st month
[9] = Accelerated test (60 C./relative humidity 75%, open), 2nd month
[10] = Accelerated test (60 C./relative humidity 75%, open), 3rd month
[11] = Accelerated test (60 C./relative humidity 75%, open), 10th day
[12] = High humidity (Room temperature/relative humidity 92.5%, open), 5th day
[13] = High humidity (Room temperature/relative humidity 92.5%, open), 10th day
[14] = High temperature (60° C., open), 5th day
[15] = High temperature (60° C., open), 10th day
[16] = Light irradiation (total illuminance 1.2 × 10^6 Lux·hr/near ultraviolet 200 w·hr/m^2, open), light irradiation sample
[17] = Light irradiation test, Dark sample
[18] = Accelerated test (40° C./relative humidity 75%, open), 1st month
[19] = Accelerated test (40° C./relative humidity 75%, open), 2nd month
[20] = Accelerated test (40° C./relative humidity 75%, open), 3rd month
[21] = Accelerated test (40° C./relative humidity 75%, open), 10th day
[22] = Accelerated test (60° C./relative humidity 75%, open), 1st month
[23] = Accelerated test (60° C./relative humidity 75%, open), 2nd month
[24] = Accelerated test (60° C./relative humidity 75%, open), 3rd month
[25] = Accelerated test (60° C./relative humidity 75%, open), 10th day
[26] = Light irradiation (1.2 × 10^6 Lux·hr, near ultraviolet 200 w·hr/m^2, open), irradiated sample

T1 sequence (P11362 22-822): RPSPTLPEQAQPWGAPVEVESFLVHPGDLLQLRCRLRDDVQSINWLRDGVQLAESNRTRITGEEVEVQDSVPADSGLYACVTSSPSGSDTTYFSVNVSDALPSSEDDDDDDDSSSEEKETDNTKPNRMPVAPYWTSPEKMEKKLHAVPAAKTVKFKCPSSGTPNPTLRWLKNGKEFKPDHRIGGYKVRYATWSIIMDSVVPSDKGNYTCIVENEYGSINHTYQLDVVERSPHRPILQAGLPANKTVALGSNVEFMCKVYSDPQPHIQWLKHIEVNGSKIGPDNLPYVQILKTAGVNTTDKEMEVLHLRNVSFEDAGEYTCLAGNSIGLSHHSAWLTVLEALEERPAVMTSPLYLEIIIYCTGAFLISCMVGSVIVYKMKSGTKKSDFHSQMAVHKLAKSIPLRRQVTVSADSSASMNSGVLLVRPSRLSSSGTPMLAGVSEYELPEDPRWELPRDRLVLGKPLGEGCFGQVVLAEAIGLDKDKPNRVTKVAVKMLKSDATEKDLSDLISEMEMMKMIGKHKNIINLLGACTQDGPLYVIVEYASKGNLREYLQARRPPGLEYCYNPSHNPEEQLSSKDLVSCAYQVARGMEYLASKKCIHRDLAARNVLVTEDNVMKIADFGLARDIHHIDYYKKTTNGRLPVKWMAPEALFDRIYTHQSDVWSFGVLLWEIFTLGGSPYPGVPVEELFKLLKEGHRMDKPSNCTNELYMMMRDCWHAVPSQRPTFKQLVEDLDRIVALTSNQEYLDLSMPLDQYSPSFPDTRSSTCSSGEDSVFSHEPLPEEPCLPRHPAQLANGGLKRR

SMILES: C[C@@H](Oc1ccc2[nH]nc(/C=C(\F)c3ccc(CNC4CCOCC4)nc3)c2c1)c1c(Cl)cncc1Cl.O=C(O)C[C@H](O)C(=O)O [crystal form J]
- Appearance ([1]; 0th day, control): Earth yellow
- Crystal form (XRPD) ([1]; 0th day, control): form J
- Content (%) ([1]; 0th day, control, HPLC): 100.00%
- Total impurities (%) ([1]; 0th day, control, HPLC): 1.42%
- Appearance [1, 4]: Earth yellow
- Content (%) [1, 4]: 99.31%
- Crystal form (XRPD) [1, 4]: form J
- Total impurities (%) [1, 4]: 1.36%
- Appearance [1, 5]: Earth yellow
- Content (%) [1, 5]: 99.40%
- Crystal form (XRPD) [1, 5]: form J
- Total impurities (%) [1, 5]: 1.20%
- Appearance [1, 6]: Earth yellow
- Content (%) [1, 6]: 98.62%
- Crystal form (XRPD) [1, 6]: form J
- Total impurities (%) [1, 6]: 1.20%
- Appearance [1, 7]: Earth yellow
- Content (%) [1, 7]: 99.44%
- Crystal form (XRPD) [1, 7]: form J
- Total impurities (%) [1, 7]: 1.33%
- Appearance [1, 8]: Earth yellow
- Content (%) [1, 8]: 97.07%
- Crystal form (XRPD) [1, 8]: form J
- Total impurities (%) [1, 8]: 1.43%
- Appearance [1, 9]: Earth yellow
- Content (%) [1, 9]: 97.22%
- Crystal form (XRPD) [1, 9]: form J
- Total impurities (%) [1, 9]: 1.48%
- Appearance [1, 10]: Earth yellow
- Content (%) [1, 10]: 97.18%
- Crystal form (XRPD) [1, 10]: form J
- Total impurities (%) [1, 10]: 1.53%
- Appearance [1, 11]: Earth yellow
- Content (%) [1, 11]: 99.05%
- Crystal form (XRPD) [1, 11]: form J
- Total impurities (%) [1, 11]: 1.36%
- Appearance [1, 12]: Earth yellow
- Content (%) [1, 12]: 99.06%
- Crystal form (XRPD) [1, 12]: form J
- Total impurities (%) [1, 12]: 1.31%
- Appearance [1, 13]: Earth yellow
- Content (%) [1, 13]: 100.58%
- Crystal form (XRPD) [1, 13]: form J
- Total impurities (%) [1, 13]: 1.32%
- Appearance [1, 14]: Earth yellow
- Content (%) [1, 14]: 98.83%
- Crystal form (XRPD) [1, 14]: form J
- Total impurities (%) [1, 14]: 1.39%
- Appearance [1, 15]: Earth yellow
- Content (%) [1, 15]: 99.11%
- Crystal form (XRPD) [1, 15]: form J
- Total impurities (%) [1, 15]: 1.46%
- Appearance [1, 16]: Earth yellow
- Content (%) [1, 16]: 96.41%
- Crystal form (XRPD) [1, 16]: form J
- Total impurities (%) [1, 16]: 1.90%
- Appearance [1, 17]: Earth yellow
- Content (%) [1, 17]: 98.04%
- Crystal form (XRPD) [1, 17]: form J
- Total impurities (%) [1, 17]: 1.30%
- thermal stability and stability under accelerated conditions [1]: excellent
- stability under dark conditions [1]: good stability
- impurities generated under light irradiation conditions [1]: slight impurities
- hygroscopic weight gain ΔW [2]: 5.227%
- hygroscopicity evaluation [2]: hygroscopic

SMILES: C[C@@H](Oc1ccc2[nH]nc(/C=C(\F)c3ccc(CNC4CCOCC4)nc3)c2c1)c1c(Cl)cncc1Cl [Embodiment 1]
- IC50 (FGFR1): ≤ 10 nM
- TGI % (last administration) [3]: 85%

SMILES: C[C@@H](Oc1ccc2[nH]nc(/C=C(\F)c3ccc(CNC4CCOCC4)nc3)c2c1)c1c(Cl)cncc1Cl.O=C(O)CC(O)(CC(=O)O)C(=O)O [crystal form I]
- Appearance ([1]; 0th day): Earth yellow
- Content (%) ([1]; 0th day): 100.00%
- Crystal form (XRPD) ([1]; 0th day): form I
- Total impurities (%) ([1]; 0th day): 1.91%
- Appearance [1, 18]: Earth yellow
- Content (%) [1, 18]: 99.83%
- Crystal form (XRPD) [1, 18]: form I
- Total impurities (%) [1, 18]: 1.88%
- Appearance [1, 19]: Earth yellow
- Content (%) [1, 19]: 100.06%
- Crystal form (XRPD) [1, 19]: form I
- Total impurities (%) [1, 19]: 1.82%
- Appearance [1, 20]: Earth yellow
- Content (%) [1, 20]: 99.32%
- Crystal form (XRPD) [1, 20]: form I
- Total impurities (%) [1, 20]: 1.86%
- Appearance [1, 21]: Earth yellow
- Content (%) [1, 21]: 99.93%
- Crystal form (XRPD) [1, 21]: form I
- Total impurities (%) [1, 21]: 1.85%
- Appearance [1, 22]: Earth yellow
- Content (%) [1, 22]: 99.95%
- Crystal form (XRPD) [1, 22]: form I
- Total impurities (%) [1, 22]: 1.74%
- Appearance [1, 23]: Earth yellow
- Content (%) [1, 23]: 98.46%
- Crystal form (XRPD) [1, 23]: form I
- Total impurities (%) [1, 23]: 1.79%
- Appearance [1, 24]: Earth yellow
- Content (%) [1, 24]: 97.31%
- Crystal form (XRPD) [1, 24]: form I
- Total impurities (%) [1, 24]: 1.83%
- Appearance [1, 25]: Earth yellow
- Content (%) [1, 25]: 100.19%
- Crystal form (XRPD) [1, 25]: form I
- Total impurities (%) [1, 25]: 1.85%
- Appearance [1, 12]: Earth yellow
- Content (%) [1, 12]: 99.10%
- Crystal form (XRPD) [1, 12]: form I
- Total impurities (%) [1, 12]: 1.88%
- Appearance [1, 13]: Earth yellow
- Content (%) [1, 13]: 99.92%
- Crystal form (XRPD) [1, 13]: form I
- Total impurities (%) [1, 13]: 1.73%
- Appearance [1, 14]: Earth yellow
- Content (%) [1, 14]: 100.40%
- Crystal form (XRPD) [1, 14]: form I
- Total impurities (%) [1, 14]: 1.93%
- Appearance [1, 15]: Earth yellow
- Content (%) [1, 15]: 100.26%
- Crystal form (XRPD) [1, 15]: form I
- Total impurities (%) [1, 15]: 1.83%
- Appearance [1, 26]: Earth yellow
- Content (%) [1, 26]: 97.37%
- Crystal form (XRPD) [1, 26]: form I
- Total impurities (%) [1, 26]: 2.35%
- Appearance [1, 17]: Earth yellow
- Content (%) [1, 17]: 99.42%
- Crystal form (XRPD) [1, 17]: form I
- Total impurities (%) [1, 17]: 1.85%
- thermal stability and stability under accelerated conditions [1]: excellent
- stability under dark conditions [1]: good stability
- impurities generated under light irradiation conditions [1]: slight impurities
- hygroscopic weight gain ΔW [2]: 2.134%
- hygroscopicity evaluation [2]: hygroscopic
